Values quoted from earlier work in patent US20230364244A1, “DENDRIMER COMPOSITIONS AND METHODS FOR DRUG DELIVERY TO INJURED KIDNEY” (Ashvattha Therapeutics, Inc., priority 2020, published 2023).

Target: T1, PPAR-δ (Homo sapiens, UniProt Q03181)
T1 construct: host or cells: human mesenchymal stem cells (endogenous receptor)
T1 sequence (Q03181 1-441): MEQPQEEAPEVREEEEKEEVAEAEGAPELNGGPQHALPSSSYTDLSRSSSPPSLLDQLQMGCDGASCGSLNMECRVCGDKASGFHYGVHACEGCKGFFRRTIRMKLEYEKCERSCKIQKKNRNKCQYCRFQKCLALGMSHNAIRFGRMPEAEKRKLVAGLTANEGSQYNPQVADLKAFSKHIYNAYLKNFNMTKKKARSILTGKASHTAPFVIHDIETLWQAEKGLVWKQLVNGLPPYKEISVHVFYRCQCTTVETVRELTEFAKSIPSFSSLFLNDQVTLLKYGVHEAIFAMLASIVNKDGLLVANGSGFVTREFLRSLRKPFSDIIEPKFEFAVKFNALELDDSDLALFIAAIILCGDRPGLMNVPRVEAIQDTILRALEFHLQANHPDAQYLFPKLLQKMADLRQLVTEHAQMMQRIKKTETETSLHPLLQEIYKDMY
Conditions: co-culture; inhibition of PPAR-δ in MSCs

## O=C(NCCS(=O)(=O)c1ccc(C(F)(F)F)cn1)c1ccc(Cl)cc1 [GSK3787]
  ability of human MSCs to limit proliferation of peripheral blood mononuclear cells: enhanced their ability to limit proliferation of peripheral blood mononuclear cells
